# According to US12060388B2, “Cell-penetrating peptides and methods of use thereof” (priority 2018, dated 2024):
# What was measured:
# HPV16 PsV = assay: Inhibition of HPV16 PsV infection of HaCaT keratinocytes; type: cell-based; conditions: 14 μM, MOI of 1, 48 h.p.i.
# Text: FIG. 18A (top) depicts sequences of L2 peptides. […] Amino acid substitutions in the CPP or RBS mutant peptides are shown in orange and blue, respectively. Bottom: RBS and flanking sequences of indicated HPV L2 proteins or DMT1-II. FIG. 18B depicts an inhibitory dose-response curve for P16/16 peptide. 5×10^4 HeLa-S3 in 24-well plates were pretreated with various concentrations of P16/16 for one hour prior to infection with HPV pseudovirus (PsV) at multiplicity of infection (MOI) of 1. Peptide was left in the medium for the duration of the experiment. Cells were assessed by flow cytometry to determine the fraction of cells expressing reporter protein HcRed at 48 hours post-infection (h.p.i.). […] Forty-eight h.p.i., cells were assessed by flow cytometry to determine fraction of cells expressing reporter protein HcRed. […] HaCaT keratinocytes were infected at MOI of 1 with HPV16 PsV in the presence and absence of 14 μM P16/16, and infectivity was assessed 48 h.p.i. by flow cytometry for HcRed fluorescence. […] Successful infection by HPV16 and HPV16 PsV was assessed by quantitative reverse transcription-PCR (qRT-PCR) for expression of HPV early region and HcRed mRNA, respectively, and normalized to infection by the cognate virus in the absence of peptide. Background signal determined with non-cognate primers was <0.01%.
# SV40 = SV40 infection of HeLa-S3 cells, flow cytometry for large T antigen; type: cell-based; conditions: 14 μM, MOI of ~1, 48 h.p.i.
# Method: HeLa-S3 cells were treated with 14 μM P16/16 peptide or vehicle for one hour then infected with SV40 at MOI of ˜1. Forty-eight h.p.i., cells were washed, fixed, and permeabilized with cold methanol for 30 min. Cells were stained for intracellular SV40 large T antigen with fluorophore-conjugated monoclonal antibody PAb101, followed by flow cytometry. The histograms show number of cells and […] fluorescence in the absence or presence of peptide. Traces correspond to mock-infected cells (Line C), mock-infected cells in the presence of peptides (Line D), SV40-infected cells (Line A), and SV40-infected cells in the presence of peptides (Line B).
# For studies of SV40 infection, 7.5×105 HeLa-S3 in 6-well plates were incubated with peptides prior to infection. Cells were infected with a crude preparation of SV40 at MOI of ˜1 and fixed with 4% paraformaldehyde at 48 h.p.i. Samples were stained with FITC-conjugated anti-large T antigen antibody (Pab101) (Santa Cruz, pSC147 FITC), followed by flow cytometry to determine the mean fluorescent intensity of T antigen staining.
smiles,measurement,setting,value
CC[C@H](C)[C@H](NC(=O)[C@@H](NC(=O)[C@H](Cc1ccc(O)cc1)NC(=O)[C@H](CCC(N)=O)NC(=O)[C@@H]1CCCN1C(=O)[C@H](CO)NC(=O)[C@@H](N)CS)[C@@H](C)O)C(=O)N[C@H](C(=O)N[C@@H](C)C(=O)N[C@@H](CC(=O)O)C(=O)N[C@@H](C)C(=O)NCC(=O)N[C@@H](CC(=O)O)C(=O)N[C@@H](Cc1ccccc1)C(=O)N[C@@H](Cc1ccc(O)cc1)C(=O)N[C@@H](CC(C)C)C(=O)N[C@@H](Cc1c[nH]cn1)C(=O)N1CCC[C@H]1C(=O)N[C@@H](CO)C(=O)N[C@@H](Cc1ccc(O)cc1)C(=O)N[C@@H](Cc1ccc(O)cc1)C(=O)N[C@@H](CCSC)C(=O)N[C@@H](CC(C)C)C(=O)N[C@@H](CCCNC(=N)N)C(=O)N[C@@H](CCCCN)C(=O)N[C@@H](CCCNC(=N)N)C(=O)N[C@@H](CCCNC(=N)N)C(=O)N[C@@H](CCCCN)C(=O)N[C@@H](CCCNC(=N)N)C(=O)O)[C@@H](C)CC [P16/16],inhibition of HPV16 PsV infection in HaCaT,HPV16 PsV,inhibited infection
same,inhibition of SV40 infection,SV40,did not inhibit
